Laboratory results from patent US20050095240A1, “NaCT as a target for lifespan expansion and weight reduction” (Medical College of Georgia Research, priority 2002, published 2005).

Experiments:
mouse NaCT = target: T1, mouse NaCT (Mus musculus, UniProt Q67BT3); assay: Mouse NaCT in X. laevis oocytes, two-microelectrode voltage clamp; assay type: cell-based; conditions: 0.5 mM citrate; three oocytes; −50 mV
T1 sequence (Q67BT3 1-572): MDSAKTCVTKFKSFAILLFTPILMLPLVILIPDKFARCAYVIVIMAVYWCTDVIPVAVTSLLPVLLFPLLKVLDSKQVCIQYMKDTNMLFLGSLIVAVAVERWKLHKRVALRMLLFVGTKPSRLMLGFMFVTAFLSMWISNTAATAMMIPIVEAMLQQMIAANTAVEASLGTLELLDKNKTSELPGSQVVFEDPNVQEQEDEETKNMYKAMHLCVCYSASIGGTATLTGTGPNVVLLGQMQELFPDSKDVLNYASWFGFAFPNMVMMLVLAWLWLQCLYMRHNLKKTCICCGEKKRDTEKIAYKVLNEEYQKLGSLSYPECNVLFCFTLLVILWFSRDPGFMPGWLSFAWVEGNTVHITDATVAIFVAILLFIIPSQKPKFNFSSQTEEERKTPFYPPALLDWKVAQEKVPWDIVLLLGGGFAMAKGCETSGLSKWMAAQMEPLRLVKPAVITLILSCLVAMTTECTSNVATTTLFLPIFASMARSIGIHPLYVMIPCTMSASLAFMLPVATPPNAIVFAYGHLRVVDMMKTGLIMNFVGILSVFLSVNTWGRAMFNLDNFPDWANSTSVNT
Protocol: Functional expression of mouse and rat NaCTs in Xenopus laevis oocytes. Capped cRNA from the cloned mouse NaCT cDNA was synthesized using the mMESSAGE mMACHINE kit (Ambion Inc., Austin, Tex., USA). In some experiments, rat NaCT of Example 2 was used for functional expression. […] On the following day, oocytes were injected with 50 ng cRNA. Water-injected oocytes served as controls. The oocytes were used for electrophysiological studies 4-6 days after cRNA injection. Electrophysiological studies were performed by the two-microelectrode voltage-clamp method (Hatanaka et al., J. Clin. Invest. (2001);107: 1035-1043 and Nakanishi et al., J. Physiol. (2001);532: 297-304). […] The membrane potential was clamped at −50 mV. […] The oocytes were perifused with 50 μM [^14C]-citrate or 50 μM succinate (unlabeled plus radiolabeled succinate) and inward currents were monitored over a period of 10 min. […] The area within the curve describing the relationship between the time and inward current was integrated to calculate the charge transferred into the oocyte during incubation with citrate or succinate. The values for substrate transport and charge transfer were used to determine the charge-to-substrate ratio.

hNaDC3 [1] = target: T2, hNaDC3 (Homo sapiens, UniProt Q8WWT9); assay: cell-based
T2 sequence (Q8WWT9 1-602): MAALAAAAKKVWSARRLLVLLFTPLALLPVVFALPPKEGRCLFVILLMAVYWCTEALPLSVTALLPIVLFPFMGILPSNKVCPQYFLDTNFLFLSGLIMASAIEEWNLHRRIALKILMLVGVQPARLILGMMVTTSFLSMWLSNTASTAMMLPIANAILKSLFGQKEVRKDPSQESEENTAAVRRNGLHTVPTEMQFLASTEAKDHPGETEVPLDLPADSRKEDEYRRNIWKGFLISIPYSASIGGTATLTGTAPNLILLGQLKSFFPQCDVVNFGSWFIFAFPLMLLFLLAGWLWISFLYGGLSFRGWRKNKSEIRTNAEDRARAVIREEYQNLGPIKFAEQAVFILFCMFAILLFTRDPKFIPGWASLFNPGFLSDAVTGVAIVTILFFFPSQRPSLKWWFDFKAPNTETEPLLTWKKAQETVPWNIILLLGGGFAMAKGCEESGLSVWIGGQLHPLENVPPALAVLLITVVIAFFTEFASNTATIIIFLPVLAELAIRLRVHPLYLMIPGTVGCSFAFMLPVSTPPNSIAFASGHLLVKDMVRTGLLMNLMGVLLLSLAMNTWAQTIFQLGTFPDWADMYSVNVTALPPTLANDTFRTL

hNaDC3 [2] = target: T2, hNaDC3; conditions: read-out: Km for succinate, hNaDC3; as determined by Wang et al.; cited from earlier work
NaDC1 = conditions: cited from earlier work

| Compound | Citrate-induced inward current (mouse NaCT) | Ki (hNaDC3 [1]) | Km (hNaDC3 [2]) | Michaelis-Menten constant for succinate, NaDC1 (NaDC1) |
| --- | --- | --- | --- | --- |
| O=C(O)CC(O)(CC(=O)O)C(=O)O [Citrate] | 30±7 nA | 2100 ± 300 µM |  |  |
| O=C(O)CCC(=O)O [Succinate, succinate] |  |  | 20 ± 1 µM | 0.1 to 4.0 mM |
